Experiments:
[1] = n-Octanol/water partition coefficient, logP of the compound; assay type: physicochemical
Mus musculus [2] = assay: Anesthetic activity in mouse assessed as concentration required to induce hypnotic effect; assay type: functional
[3] = molecular target: GABA-A receptor; anion channel (Homo sapiens) (UniProt P14867+P47870+P18507+P28472+P48169+Q99928+Q9UN88+P34903+O00591+O14764+Q8N1C3+P18505+P78334+P47869+P31644+Q16445); assay: Inhibition of GABAA receptor (unknown origin) at 50 uM by radioligand receptor binding assay relative to control; assay type: protein-complex assay
[4] = Toxicity in mouse assessed as lethal dose; settings: in vivo
[5] = Therapeutic index, ratio of LD50 for toxicity in mouse to HD50 for anesthetic activity in mouse assessed as concentration required to induce hypnotic effect; settings: read-out: TI
Mus musculus [6] = assay: Anesthetic activity in mouse assessed as onset time; assay type: functional
Mus musculus [7] = assay: Anesthetic activity in mouse assessed as time duration of loss of righting reflex; assay type: functional
Mus musculus [8] = assay: Anesthetic activity in mouse assessed as time to walk; assay type: functional
Mus musculus [9] = assay: Anesthetic activity in mouse assessed as time to behavioral recovery; assay type: functional
Oryctolagus cuniculus [10] = assay: Anesthetic activity in rabbit assessed as concentration required to induce hypnotic effect; assay type: functional
[11] = Toxicity in rabbit assessed as lethal dose; parameters: species or system Oryctolagus cuniculus; settings: in vivo
[12] = Therapeutic index, ratio of LD50 for toxicity in rabbit to HD50 for anesthetic activity in rabbit assessed as concentration required to induce hypnotic effect; settings: read-out: TI
Rattus norvegicus [13] = assay: Anesthetic activity in rat assessed as onset time; assay type: functional
Rattus norvegicus [14] = assay: Anesthetic activity in rat assessed as time to walk; assay type: functional
Rattus norvegicus [15] = assay: Anesthetic activity in rat assessed as time to behavioral recovery; assay type: functional
Oryctolagus cuniculus [16] = assay: Anesthetic activity in rabbit assessed as onset time; assay type: functional
Oryctolagus cuniculus [17] = assay: Anesthetic activity in rabbit assessed as time duration of loss of righting reflex; assay type: functional
Oryctolagus cuniculus [18] = assay: Anesthetic activity in rabbit assessed as time to walk; assay type: functional
Rattus norvegicus [19] = assay: Anesthetic activity in rat assessed as concentration required to induce hypnotic effect; assay type: functional
[20] = Toxicity in rat assessed as lethal dose; settings: in vivo
[21] = Therapeutic index, ratio of LD50 for toxicity in rat to HD50 for anesthetic activity in rat assessed as concentration required to induce hypnotic effect; settings: read-out: TI
Rattus norvegicus [22] = assay: Anesthetic activity in rat assessed as time duration of loss of righting reflex; assay type: functional
[23] = n-octanol/water, read-out: logP

SMILES | logP [1, 23] | ED50 (Mus musculus [2]) | inhibition [3] | LD50 [4] | selectivity ratio [5] | also measured
CCOC(=O)Cc1ccc(OCC(=O)N2CCNCC2)c(OCC)c1 | 2 | > 100 mg/kg | 65.2% |  |  | 
COc1cc(CC(=O)OC(C)C)ccc1OCC(=O)N1CCCC1 | 1.9 | 59.9 mg/kg | 55.6% |  |  | 
COc1cc(CC(=O)OC(C)C)ccc1OCC(=O)N1CCOCC1 | 1.3 | 46.8 mg/kg | 35.7% | 276 mg/kg | 5.9 | 
CC(C)c1cccc(C(C)C)c1O [PROPOFOL] | 4.2 | 11.9 mg/kg |  |  | 5.1 | Time (Mus musculus [6]): 8.1 s; Time (Mus musculus [7]): 240.9 s; Time (Mus musculus [8]): 46.5 s; Time (Mus musculus [9]): 242.7 s; ED50 (Oryctolagus cuniculus [10]): 3.7 mg/kg; LD50 [11]: 20.2 mg/kg; selectivity ratio [12]: 5.4; Time (Rattus norvegicus [13]): 10.1 s; Time (Rattus norvegicus [14]): 286.5 s; Time (Rattus norvegicus [15]): 335.8 s; Time (Oryctolagus cuniculus [16]): 21.7 s; Time (Oryctolagus cuniculus [17]): 326.6 s; Time (Oryctolagus cuniculus [18]): 425.3 s
CCOC(=O)Cc1ccc(OCC(=O)N2CCCC2)c(OCC)c1 | 2.1 | 56 mg/kg | 26.5% |  |  | 
CCCOC(=O)Cc1ccc(OCC(=O)N2CCNCC2)c(OCC)c1 | 1.7 | > 100 mg/kg | 23.1% |  |  | 
CCCOC(=O)Cc1ccc(OCC(=O)N2CCN(C(=O)OC(C)(C)C)CC2)c(OC)c1 | 1.9 | 43.6 mg/kg | 36.1% | 340 mg/kg | 7.8 | 
COc1cc(CC(=O)OC(C)C)ccc1OCC(=O)N1CCNCC1 | 1.8 | > 100 mg/kg | 57.8% |  |  | 
CCOC(=O)Cc1cc(OCC)c(OCC(=O)N(CC)CC)cc1F |  |  |  |  |  | logP ([1]; octanol/water): 2.1
CCOc1cc(CC(=O)OCC(F)(F)F)ccc1OCC(=O)N(CC)CC | 2.6 |  |  |  |  | 
CCCOC(=O)Cc1ccc(OCC(=O)N2CCOCC2)c(OC)c1 | 1.5 | 52.9 mg/kg | 46.3% | 339 mg/kg | 6.4 | 
CCCOC(=O)Cc1ccc(OCC(=O)N2CCCC2)c(OCC)c1 | 2.3 | 60.8 mg/kg | 47.8% |  |  | 
CCOC(=O)Cc1ccc(OCC(=O)N2CCOCC2)c(OCC)c1 | 1.1 | 35.5 mg/kg | 62.8% | 227 mg/kg | 6.4 | Time (Mus musculus [6]): 7.6 s; Time (Mus musculus [7]): 112.9 s; Time (Mus musculus [8]): 39.8 s; Time (Mus musculus [9]): 69.3 s; ED50 (Rattus norvegicus [19]): 10.5 mg/kg; LD50 [20]: 89.3 mg/kg; selectivity ratio [21]: 8.5; ED50 (Oryctolagus cuniculus [10]): 7.6 mg/kg; LD50 [11]: 131 mg/kg; selectivity ratio [12]: 17.3; Time (Rattus norvegicus [13]): 8.7 s; Time (Rattus norvegicus [22]): 78.9 s; Time (Rattus norvegicus [14]): 25.8 s; Time (Rattus norvegicus [15]): 65.8 s; Time (Oryctolagus cuniculus [16]): 24.6 s; Time (Oryctolagus cuniculus [17]): 197.2 s; Time (Oryctolagus cuniculus [18]): 96.6 s
CCOC(=O)Cc1ccc(OCC(=O)N2CCOCC2)c(OC)c1 | 1.4 | 44.8 mg/kg | 52.9% | 278 mg/kg | 6.2 | 
CCOc1cc(CC(=O)OC(C)C)ccc1OCC(=O)N1CCOCC1 | 1.2 | 30.8 mg/kg | 76.8% | 200 mg/kg | 6.5 | Time (Mus musculus [6]): 7.5 s; Time (Mus musculus [7]): 116.8 s; Time (Mus musculus [8]): 54.9 s; Time (Mus musculus [9]): 96.8 s; ED50 (Rattus norvegicus [19]): 11.4 mg/kg; LD50 [20]: 128 mg/kg; selectivity ratio [21]: 11.2; ED50 (Oryctolagus cuniculus [10]): 7.4 mg/kg; LD50 [11]: 112 mg/kg; selectivity ratio [12]: 15.2; Time (Rattus norvegicus [13]): 11.1 s; Time (Rattus norvegicus [22]): 84.6 s; Time (Rattus norvegicus [14]): 32.6 s; Time (Rattus norvegicus [15]): 61.7 s; Time (Oryctolagus cuniculus [16]): 19.9 s; Time (Oryctolagus cuniculus [17]): 188.6 s; Time (Oryctolagus cuniculus [18]): 81.4 s
CCCOC(=O)Cc1ccc(OCC(=O)N2CCCC2)c(OC)c1 | 1.8 | 64.2 mg/kg | 72.5% |  |  | 
CCOc1cc(CC(=O)OC(C)C)ccc1OCC(=O)N1CCNCC1 | 1.5 | > 100 mg/kg | 36.4% |  |  | 
CCCOC(=O)Cc1ccc(OCC(=O)N(CC)CC)c(OCC)c1 [AZD-3043] | 2.8 | 17.6 mg/kg |  |  |  | Time (Mus musculus [6]): 5.6 s; Time (Mus musculus [7]): 63.8 s; Time (Mus musculus [8]): 22.9 s; Time (Mus musculus [9]): 89.6 s; ED50 (Oryctolagus cuniculus [10]): 4.6 mg/kg; Time (Rattus norvegicus [13]): 12.4 s; Time (Rattus norvegicus [14]): 38.4 s; Time (Rattus norvegicus [15]): 56.9 s; Time (Oryctolagus cuniculus [16]): 19.8 s; Time (Oryctolagus cuniculus [17]): 221.6 s; Time (Oryctolagus cuniculus [18]): 89.6 s
CCOC(=O)Cc1ccc(OCC(=O)N2CCN(C(=O)OC(C)(C)C)CC2)c(OC)c1 | 1.5 | 35.2 mg/kg | 55.2% | 257 mg/kg | 7.3 | 
COc1cc(CC(=O)OC(C)C)ccc1OCC(=O)N1CCN(C(=O)OC(C)(C)C)CC1 | 1.8 | 38.2 mg/kg | 69.7% | 264 mg/kg | 6.9 | 
CCOC(=O)Cc1ccc(OCC(=O)N2CCCC2)c(OC)c1 | 1.3 | 56.8 mg/kg | 48.8% |  |  | 
CCOc1cc(CC(=O)OC(C)C)ccc1OCC(=O)N1CCN(C(=O)OC(C)(C)C)CC1 | 2.1 | 36.8 mg/kg | 29.3% | 258 mg/kg | 7 | 
CCCOC(=O)Cc1ccc(OCC(=O)N2CCOCC2)c(OCC)c1 | 1.4 | 32.2 mg/kg | 64.3% | 200 mg/kg | 6.2 | Time (Mus musculus [6]): 6.7 s; Time (Mus musculus [7]): 104.8 s; Time (Mus musculus [8]): 46.8 s; Time (Mus musculus [9]): 89.6 s; ED50 (Rattus norvegicus [19]): 12.2 mg/kg; LD50 [20]: 123 mg/kg; selectivity ratio [21]: 10.1; ED50 (Oryctolagus cuniculus [10]): 6.5 mg/kg; LD50 [11]: 108 mg/kg; selectivity ratio [12]: 16.6; Time (Rattus norvegicus [13]): 9.2 s; Time (Rattus norvegicus [22]): 81.2 s; Time (Rattus norvegicus [14]): 37.9 s; Time (Rattus norvegicus [15]): 69.6 s; Time (Oryctolagus cuniculus [16]): 21.3 s; Time (Oryctolagus cuniculus [17]): 211.4 s; Time (Oryctolagus cuniculus [18]): 79.6 s
CCOC(=O)Cc1ccc(OCC(=O)N2CCNCC2)c(OC)c1 | 1.5 | > 100 mg/kg | 44.5% |  |  | 
CCCOC(=O)Cc1ccc(OCC(=O)N(CC)CC)c(OC)c1 [PROPANIDID] |  | 20.9 mg/kg |  |  |  | Time (Mus musculus [6]): 6.7 s; Time (Mus musculus [7]): 89.6 s; Time (Mus musculus [8]): 56.3 s; Time (Mus musculus [9]): 83.9 s; ED50 (Oryctolagus cuniculus [10]): 5.1 mg/kg; Time (Rattus norvegicus [13]): 16.3 s; Time (Rattus norvegicus [14]): 58.7 s; Time (Rattus norvegicus [15]): 79.9 s; Time (Oryctolagus cuniculus [16]): 22.6 s; Time (Oryctolagus cuniculus [17]): 265.4 s; Time (Oryctolagus cuniculus [18]): 124.5 s
CCCOC(=O)Cc1ccc(OCC(=O)N2CCN(C(=O)OC(C)(C)C)CC2)c(OCC)c1 | 2.3 | 32.9 mg/kg | 33.4% | 240 mg/kg | 7.3 | 
CCOC(=O)Cc1ccc(OCC(=O)N2CCN(C(=O)OC(C)(C)C)CC2)c(OCC)c1 | 1.8 | 30.6 mg/kg | 45.2% | 217 mg/kg | 7.1 | 
CCCOC(=O)Cc1ccc(OCC(=O)N2CCNCC2)c(OC)c1 | 1.7 | > 100 mg/kg | 38.6% |  |  | 
